What was measured:
[1] = system: SF-268; experiment: Growth inhibition of human SF268 cells at 10 uM incubated for 48 hrs by sulforhodamine B assay relative to control; assay type: functional; conditions: SF-268, 48 h, read-out: GI
[2] = system: UACC-257; experiment: Growth inhibition of human UACC257 cells at 10 uM incubated for 48 hrs by sulforhodamine B assay relative to control; assay type: functional; conditions: UACC-257, 48 h, read-out: GI
[3] = system: SR; experiment: Growth inhibition of human SR cells at 10 uM incubated for 48 hrs by sulforhodamine B assay relative to control; assay type: functional; conditions: read-out: GI
[4] = system: PC-3; experiment: Growth inhibition of human PC3 cells at 10 uM incubated for 48 hrs by sulforhodamine B assay relative to control; assay type: functional; conditions: PC-3, 48 h, read-out: GI
[5] = system: A549; experiment: Growth inhibition of human A549/ATCC cells at 10 uM incubated for 48 hrs by sulforhodamine B assay relative to control; assay type: functional; conditions: A549, 48 h, read-out: GI
[6] = system: T47D; experiment: Growth inhibition of human T47D cells at 10 uM incubated for 48 hrs by sulforhodamine B assay relative to control; assay type: functional; conditions: read-out: GI
[7] = system: U-251; experiment: Growth inhibition of human U251 cells at 10 uM incubated for 48 hrs by sulforhodamine B assay relative to control; assay type: functional; conditions: U-251, 48 h, read-out: GI
[8] = system: PANC-1; experiment: Antiproliferative activity against human PANC1 cells after 48 hrs by propidium iodide staining-based fluorometric analysis; assay type: functional, cell-based; conditions: PANC-1, 48 h
[9] = system: RPMI-8226; experiment: Growth inhibition of human RPMI8226 cells at 10 uM incubated for 48 hrs by sulforhodamine B assay relative to control; assay type: functional; conditions: RPMI-8226, 48 h, read-out: GI
[10] = system: HT-29; experiment: Antiproliferative activity against human HT-29 cells after 48 hrs by propidium iodide staining-based fluorometric analysis; assay type: functional, cell-based; conditions: HT-29, 48 h
[11] = system: HOP-62; experiment: Growth inhibition of human HOP62 cells at 10 uM incubated for 48 hrs by sulforhodamine B assay relative to control; assay type: functional; conditions: HOP-62, 48 h, read-out: GI
[12] = system: MDA-MB-231; experiment: Growth inhibition of human MDA-MB-231/ATCC cells at 10 uM incubated for 48 hrs by sulforhodamine B assay relative to control; assay type: functional; conditions: MDA-MB-231, 48 h, read-out: GI
[13] = system: UO-31; experiment: Growth inhibition of human UO31 cells at 10 uM incubated for 48 hrs by sulforhodamine B assay relative to control; assay type: functional; conditions: UO-31, 48 h, read-out: GI
[14] = system: IGROV-1; experiment: Growth inhibition of human IGROV1 cells at 10 uM incubated for 48 hrs by sulforhodamine B assay relative to control; assay type: functional; conditions: IGROV-1, 48 h, read-out: GI
[15] = system: HL-60(TB); experiment: Growth inhibition of human HL-60(TB) cells at 10 uM incubated for 48 hrs by sulforhodamine B assay relative to control; assay type: functional; conditions: HL-60, 48 h, read-out: GI
[16] = system: NCI-H322M; experiment: Growth inhibition of human NCI-H322M cells at 10 uM incubated for 48 hrs by sulforhodamine B assay relative to control; assay type: functional; conditions: read-out: GI
[17] = system: UACC-62; experiment: Growth inhibition of human UACC62 cells at 10 uM incubated for 48 hrs by sulforhodamine B assay relative to control; assay type: functional; conditions: UACC-62, 48 h, read-out: GI
[18] = system: OVCAR-8; experiment: Growth inhibition of human OVCAR8 cells at 10 uM incubated for 48 hrs by sulforhodamine B assay relative to control; assay type: functional; conditions: OVCAR-8, 48 h, read-out: GI
[19] = system: SK-OV-3; experiment: Growth inhibition of human SKOV3 cells at 10 uM incubated for 48 hrs by sulforhodamine B assay relative to control; assay type: functional; conditions: SK-OV-3, 48 h, read-out: GI
[20] = system: SNB-75; experiment: Growth inhibition of human SNB75 cells at 10 uM incubated for 48 hrs by sulforhodamine B assay relative to control; assay type: functional; conditions: SNB-75, 48 h, read-out: GI
[21] = system: SNB-19; experiment: Growth inhibition of human SNB19 cells at 10 uM incubated for 48 hrs by sulforhodamine B assay relative to control; assay type: functional; conditions: SNB-19, 48 h, read-out: GI
[22] = system: NCI-H522; experiment: Growth inhibition of human NCI-H522 cells at 10 uM incubated for 48 hrs by sulforhodamine B assay relative to control; assay type: functional; conditions: NCI-H522, 48 h, read-out: GI
[23] = system: CCRF-CEM; experiment: Growth inhibition of human CCRF-CEM cells at 10 uM incubated for 48 hrs by sulforhodamine B assay relative to control; assay type: functional; conditions: read-out: GI
[24] = system: Hs-578T; experiment: Growth inhibition of human Hs 578T cells at 10 uM incubated for 48 hrs by sulforhodamine B assay relative to control; assay type: functional; conditions: read-out: GI
[25] = system: MOLT-4; experiment: Growth inhibition of human MOLT4 cells at 10 uM incubated for 48 hrs by sulforhodamine B assay relative to control; assay type: functional; conditions: MOLT-4, 48 h, read-out: GI
[26] = system: NCI-H226; experiment: Growth inhibition of human NCI-H226 cells at 10 uM incubated for 48 hrs by sulforhodamine B assay relative to control; assay type: functional; conditions: NCI-H226, 48 h, read-out: GI
[27] = system: NCI-H23; experiment: Growth inhibition of human NCI-H23 cells at 10 uM incubated for 48 hrs by sulforhodamine B assay relative to control; assay type: functional; conditions: NCI-H23, 48 h, read-out: GI
[28] = system: NCI-H460; experiment: Antiproliferative activity against human H460 cells after 48 hrs by propidium iodide staining-based fluorometric analysis; assay type: functional, cell-based; conditions: NCI-H460, 48 h
[29] = system: HT-29; experiment: Growth inhibition of human HT-29 cells at 10 uM incubated for 48 hrs by sulforhodamine B assay relative to control; assay type: functional; conditions: HT-29, 48 h, read-out: GI
[30] = system: SK-MEL-2; experiment: Growth inhibition of human SK-MEL-2 cells at 10 uM incubated for 48 hrs by sulforhodamine B assay relative to control; assay type: functional; conditions: SK-MEL-2, 48 h, read-out: GI
[31] = system: MIA PaCa-2; experiment: Antiproliferative activity against human MIAPaCa2 cells after 48 hrs by propidium iodide staining-based fluorometric analysis; assay type: functional, cell-based; conditions: MIA PaCa-2, 48 h
[32] = system: MCF7; experiment: Growth inhibition of human MCF7 cells at 10 uM incubated for 48 hrs by sulforhodamine B assay relative to control; assay type: functional; conditions: MCF7, 48 h, read-out: GI
[33] = target: Tubulin (Homo sapiens) (UniProt P68371+Q9H4B7+P0DPH7+P68366+Q13509+Q71U36+P04350+Q3ZCM7+P07437+P68363+Q9BQE3+Q6PEY2+Q13885+Q9BVA1+Q9BUF5); experiment: Inhibition of tubulin (unknown origin) polymerization assessed as polymerized tubulin level at 5 to 25 uM by fluorescence assay; assay type: protein-complex assay

Work on `C/C(=N\O)c1ccc(NC(=O)Cn2nc(-c3ccc(Cl)cc3)nc2N)cc1` yielded an inhibition of growth at 10 µM [1] of 10.5%, an inhibition of growth at 10 µM [2] of 27.8% and an inhibition of growth at 10 µM [3] of 18.3%. For the same compound, the inhibition of growth at 10 µM [4] was 28.9%, the inhibition of growth at 10 µM [5] was 20.1% and the inhibition of growth at 10 µM [6] was 13.5%. The inhibition of growth at 10 µM [7] was 9.67%, the IC50 [8] was 6.6 µM and the inhibition of growth at 10 µM [9] was 6.42%. For the same compound, the IC50 [10] was 5.8 µM, the inhibition of growth at 10 µM [11] was 11.7% and the inhibition of growth at 10 µM [12] was 17.4%. The inhibition of growth at 10 µM [13] was 34%, the inhibition of growth at 10 µM [14] was 10.5% and the inhibition of growth at 10 µM [15] was 5.94%. For the same compound, the inhibition of growth at 10 µM [16] was 7.09%, the inhibition of growth at 10 µM [17] was 8.96% and the inhibition of growth at 10 µM [18] was 18%. For the same compound, the inhibition of growth at 10 µM [19] was 27.4%, the inhibition of growth at 10 µM [20] was 12% and the inhibition of growth at 10 µM [21] was 10.7%. It also gave an inhibition of growth at 10 µM [22] of 31.5%, an inhibition of growth at 10 µM [23] of 14.7% and an inhibition of growth at 10 µM [24] of 11.2%. The inhibition of growth at 10 µM [25] was 33%, the inhibition of growth at 10 µM [26] was 17.8% and the inhibition of growth at 10 µM [27] was 7.43%. For the same compound, the IC50 [28] was 7.1 µM, the inhibition of growth at 10 µM [29] was 13.3% and the inhibition of growth at 10 µM [30] was 15.3%. It also gave an IC50 [31] of 8.4 µM and an inhibition of growth at 10 µM [32] of 15.9%.
`CC[C@]1(O)C[C@H]2CN(CCc3c([nH]c4ccccc34)[C@@](C(=O)OC)(c3cc4c(cc3OC)N(C=O)[C@H]3[C@@](O)(C(=O)OC)[C@H](OC(C)=O)[C@]5(CC)C=CCN6CC[C@]43[C@@H]65)C2)C1` showed an Activity [33] of 722 a.u.

Source: ChEMBL document CHEMBL4270577, “Synthesis, anticancer activity and molecular modeling studies of 1,2,4-triazole derivatives as EGFR inhibitors” (Eur J Med Chem, 2018)
